Results reported in BindingDB's records for patent WO2025049746 (Eikon Therapeutics, 2025).

Experiments:
[1] = molecular target: Bifunctional 3'-5' exonuclease/ATP-dependent helicase WRN (Homo sapiens, UniProt Q14191); experiment: ADP-Glo Kinase Assay
Procedure: ATPase activity was measured using the ADP-Glo Kinase Assay following the manufacturers recommended protocol.

[2] = molecular target: T1, Bifunctional 3'-5' exonuclease/ATP-dependent helicase WRN [480-1251] (UniProt Q14191); experiment: Biochemical Activity Assays
T1 construct: 480-1251
T1 sequence (Q14191 480-1251): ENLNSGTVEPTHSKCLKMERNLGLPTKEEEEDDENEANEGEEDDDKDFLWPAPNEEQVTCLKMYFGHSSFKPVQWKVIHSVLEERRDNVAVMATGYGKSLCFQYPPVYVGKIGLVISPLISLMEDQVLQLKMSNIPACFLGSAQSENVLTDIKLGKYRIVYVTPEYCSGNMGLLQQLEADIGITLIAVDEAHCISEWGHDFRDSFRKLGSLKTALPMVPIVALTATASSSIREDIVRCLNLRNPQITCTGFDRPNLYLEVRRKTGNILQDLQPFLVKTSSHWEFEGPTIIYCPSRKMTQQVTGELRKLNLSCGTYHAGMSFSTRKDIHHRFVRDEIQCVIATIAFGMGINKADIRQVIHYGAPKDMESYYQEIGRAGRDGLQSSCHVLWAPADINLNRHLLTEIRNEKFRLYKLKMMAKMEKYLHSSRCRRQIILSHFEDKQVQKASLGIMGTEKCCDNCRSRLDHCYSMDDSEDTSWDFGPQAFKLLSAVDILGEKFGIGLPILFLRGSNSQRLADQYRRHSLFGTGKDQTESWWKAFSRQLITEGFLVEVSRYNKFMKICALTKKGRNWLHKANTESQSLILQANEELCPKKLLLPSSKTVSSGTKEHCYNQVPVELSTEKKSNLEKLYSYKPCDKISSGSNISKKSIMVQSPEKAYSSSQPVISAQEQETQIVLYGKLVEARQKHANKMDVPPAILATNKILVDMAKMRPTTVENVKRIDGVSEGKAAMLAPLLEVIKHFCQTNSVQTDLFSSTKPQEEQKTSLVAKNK
Procedure: The pure fractions were pooled and desalted/buffer exchanged into storage buffer using a HiTrap desalting column. […] First, WRN alone was pre-incubated with DMSO or compound of interest for 15 minutes. To initiate the reaction, ATP, dsDNA substrate, and ssDNA competitor (ssDNA_comp: […]) were added and incubated at room temperature for 20 minutes at which point DNA unwinding activity was monitored by measuring Cy3 fluorescence. After obtaining the reading, the ATPase activity was measured using the ADP-Glo Kinase Assay following the manufacturers recommended protocol. […] Compounds were assayed in a 10-point dose response in duplicate at a 1% DMSO final assay concentration.

Bifunctional 3'-5' exonuclease/ATP-dependent helicase WRN, sequence (Q14191 whole entry): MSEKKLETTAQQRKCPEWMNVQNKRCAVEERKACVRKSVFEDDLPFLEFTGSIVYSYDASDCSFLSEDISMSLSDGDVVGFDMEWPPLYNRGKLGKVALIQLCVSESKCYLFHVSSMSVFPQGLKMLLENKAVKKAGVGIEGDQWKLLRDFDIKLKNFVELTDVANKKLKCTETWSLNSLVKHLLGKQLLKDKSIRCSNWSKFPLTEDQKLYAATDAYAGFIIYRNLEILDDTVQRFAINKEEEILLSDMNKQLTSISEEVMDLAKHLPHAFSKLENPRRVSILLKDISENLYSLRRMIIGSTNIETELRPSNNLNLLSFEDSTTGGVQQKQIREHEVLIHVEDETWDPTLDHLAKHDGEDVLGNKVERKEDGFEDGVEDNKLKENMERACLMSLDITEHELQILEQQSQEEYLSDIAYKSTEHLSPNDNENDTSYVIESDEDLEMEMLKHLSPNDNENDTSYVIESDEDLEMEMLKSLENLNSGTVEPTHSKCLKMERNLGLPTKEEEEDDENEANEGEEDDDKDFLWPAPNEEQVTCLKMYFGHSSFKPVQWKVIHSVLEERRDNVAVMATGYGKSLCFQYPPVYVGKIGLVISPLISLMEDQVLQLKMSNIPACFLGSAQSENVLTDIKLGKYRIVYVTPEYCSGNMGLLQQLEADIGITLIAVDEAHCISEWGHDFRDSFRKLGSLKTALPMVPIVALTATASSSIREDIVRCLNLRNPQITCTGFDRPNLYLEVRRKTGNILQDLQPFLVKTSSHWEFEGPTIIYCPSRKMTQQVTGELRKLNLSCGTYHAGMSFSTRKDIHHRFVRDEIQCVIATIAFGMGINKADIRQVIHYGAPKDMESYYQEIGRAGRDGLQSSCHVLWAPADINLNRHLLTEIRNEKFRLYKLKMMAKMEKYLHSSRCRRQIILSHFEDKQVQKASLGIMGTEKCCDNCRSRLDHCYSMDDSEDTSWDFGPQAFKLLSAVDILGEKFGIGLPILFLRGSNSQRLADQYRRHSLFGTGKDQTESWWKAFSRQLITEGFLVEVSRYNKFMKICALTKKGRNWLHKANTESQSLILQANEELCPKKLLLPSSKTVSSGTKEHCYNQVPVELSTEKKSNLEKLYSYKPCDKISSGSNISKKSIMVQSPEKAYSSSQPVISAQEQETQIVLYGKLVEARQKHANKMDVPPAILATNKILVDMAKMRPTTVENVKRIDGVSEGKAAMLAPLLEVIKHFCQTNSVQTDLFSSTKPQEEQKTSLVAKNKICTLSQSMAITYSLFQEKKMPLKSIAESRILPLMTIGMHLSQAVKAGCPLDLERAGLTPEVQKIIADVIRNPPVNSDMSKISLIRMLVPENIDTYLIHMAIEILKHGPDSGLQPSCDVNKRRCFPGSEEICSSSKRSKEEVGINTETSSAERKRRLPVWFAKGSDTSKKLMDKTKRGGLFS

IC50 [1] | IC50 [2] | Structure (SMILES)
118 nM | 94 nM | CCc1c(N2CCN(C(=O)c3cc4nnn(C)c4cc3OC)CC2)c(=O)n2nc(-c3ccc4c(c3)COC4)nc2n1CC(=O)Nc1ccc(C(F)(F)F)cc1Cl [WO2025049746, Example 429]
21 nM | 22 nM | CCc1c(N2CCN(C(=O)c3ncnc(C)c3O)CC2)c(=O)n2nc(-c3ccn4nccc4c3C)nc2n1CC(=O)Nc1ccc(C(F)(F)F)cc1Cl [WO2025049746, Example 239]
29 nM | 29 nM | CCc1c(N2CCN(C(=O)c3ncnc(C)c3O)CC2)c(=O)n2nc(-c3ccc4ncn(C)c(=O)c4c3)nc2n1CC(=O)Nc1ccc(C(F)(F)F)cc1Cl [WO2025049746, Example 259]
40.7 nM | 38.4 nM | CCc1c(N2CCN(C(=O)c3nc4n(c(=O)c3OCc3ccccc3)CCOC4)CC2)c(=O)n2nc(N(C)C)nc2n1CC(=O)Nc1ccc(C(F)(F)F)cc1Cl [WO2025049746, Example 84]
36 nM | 32 nM | CCc1c(N2CCN(C(=O)c3ncnc(C)c3O)CC2)c(=O)n2nc(-c3cc4c(cc3F)C(C)(C)OC4)nc2n1CC(=O)Nc1ccc(C(F)(F)F)cc1Cl [WO2025049746, Example 211]
93 nM | 82 nM | CCc1c(N2CCN(C(=O)c3ncnc(C)c3O)CC2)c(=O)n2nc(N3CCC3)nc2n1CC(=O)Nc1c(Cl)cc(C(F)(F)F)c2c1CC2 [WO2025049746, Example 391]
42.9 nM | 32.9 nM | CCc1c(N2CCN(C(=O)c3ncnc(C)c3O)CC2)c(=O)n2nc(-c3cncc4c3cnn4C)nc2n1CC(=O)Nc1ccc(C(F)(F)F)cc1Cl [WO2025049746, Example 24]
67 nM | 75 nM | CCc1c(N2CCN(C(=O)c3ncnc(C)c3O)CC2)c(=O)n2nc(-c3ccc4nonc4c3)nc2n1CC(=O)Nc1ccc(C(F)(F)F)cc1Cl [WO2025049746, Example 234]
32 nM | 28 nM | CCc1c(N2CCN(C(=O)c3ncnc(C)c3O)CC2)c(=O)n2nc(-c3ccc4c(c3)CCO[C@@H]4C)nc2n1CC(=O)Nc1ccc(C(F)(F)F)cc1Cl [WO2025049746, Example 228]
41.2 nM | 34.4 nM | CCc1c(N2CCN(C(=O)c3ncnc(C)c3O)CC2)c(=O)n2nc(-c3ccc4c(c3)CCOC4)nc2n1CC(=O)Nc1ccc(C(F)(F)F)cc1Cl [WO2025049746, Example 3]
2960 nM | 2300 nM | CCc1c(N2CCN(C(=O)c3ncnc(C)c3O)CC2)c(=O)n2nc(C3C4COCC43)nc2n1CC(=O)Nc1ccc(C(F)(F)F)c2c1CC2 (centres undefined) [WO2025049746, Example 382]
53 nM | 37.2 nM | CCc1c(N2CCN(C(=O)c3ncnc(C)c3O)CC2)c(=O)n2nc(N(C)C)nc2n1CC(=O)Nc1ccc(C(F)(F)F)cc1Cl [WO2025049746, Example 30]
55 nM | 40 nM | CCc1c(N2CCN(C(=O)c3ncnc(C)c3O)CC2)c(=O)n2nc(-c3ccc4c(c3)OCC4)nc2n1CC(=O)Nc1c(Cl)cc(C(F)(F)F)c2c1CC2 [WO2025049746, Example 381]
31 nM | 29 nM | CCc1c(N2CCN(C(=O)c3ncnc(C)c3O)CC2)c(=O)n2nc(-c3ccc4nn(C)c(C)c4c3)nc2n1CC(=O)Nc1ccc(C(F)(F)F)cc1Cl [WO2025049746, Example 298]
66 nM | 57 nM | CCc1c(N2CCN(C(=O)c3ncnc(C)c3O)CC2)c(=O)n2nc(-c3ccc4c(c3)COC4)nc2n1CC(=O)Nc1cc(C2CC2)c(C(F)(F)F)cc1Cl [WO2025049746, Example 418]
174 nM | 122 nM | CCc1c(N2CCN(C(=O)c3ncnc(C)c3O)CC2)c(=O)n2nc(C3=CCOCC3)nc2n1CC(=O)NC12CC(C3CCC3)(C1)C2 [WO2025049746, Example 352]

IC50 [1] | IC50 [2] | Structure (SMILES)
23 nM | 26 nM | CCc1c(N2CCN(C(=O)c3ncnc(C)c3O)CC2)c(=O)n2nc(-c3ccc4nn(C)cc4c3)nc2n1CC(=O)Nc1ccc(C(F)(F)F)cc1Cl [WO2025049746, Example 235]
58.9 nM | 40.7 nM | CCc1c(N2CCN(C(=O)c3ccccc3NS(C)(=O)=O)CC2)c(=O)n2nc(N(C)C)nc2n1CC(=O)Nc1ccc(C(F)(F)F)cc1Cl [WO2025049746, Example 82]
31 nM | 33 nM | CCc1c(N2CCN(C(=O)c3ncnc(C)c3O)CC2)c(=O)n2nc(-c3ccc4c(c3)CN(C)C4(C)C)nc2n1CC(=O)Nc1ccc(C(F)(F)F)cc1Cl [WO2025049746, Example 261]
43 nM | 35 nM | CCc1c(N2CCN(C(=O)c3ncnc(C)c3O)CC2)c(=O)n2nc(-c3ccc4c(c3)CCOC4)nc2n1CC(=O)Nc1ccc(SC(F)(F)F)cc1Cl [WO2025049746, Example 395]
24 nM | 27 nM | CCc1c(N2CCN(C(=O)c3ncnc(C)c3O)CC2)c(=O)n2nc(-c3cc(C)n4nccc4c3)nc2n1CC(=O)Nc1ccc(C(F)(F)F)cc1Cl [WO2025049746, Example 240]
51 nM | 41 nM | CCc1c(N2CCN(C(=O)c3ncnc(C)c3O)CC2)c(=O)n2nc(-c3ccc4c(c3)C(C)CO4)nc2n1CC(=O)Nc1ccc(C(F)(F)F)cc1Cl (centres undefined) [WO2025049746, Example 170]
43 nM | 34 nM | CCc1c(N2CCN(C(=O)c3ncnc(C)c3O)CC2)c(=O)n2nc(-c3ccc4c(c3)CCOC4)nc2n1CC(=O)Nc1ccc(OC(F)(F)Cl)cc1 [WO2025049746, Example 398]
31.8 nM | 23.9 nM | CCc1c(N2CCN(C(=O)c3cncc4cc[nH]c34)CC2)c(=O)n2nc(C3=CCOCC3)nc2n1CC(=O)Nc1ccc(C(F)(F)F)cc1Cl [WO2025049746, Example 47]
40 nM | 40 nM | CCc1c(N2CCN(C(=O)c3ncnc(C)c3O)CC2)c(=O)n2nc(-c3ccc4conc4c3)nc2n1CC(=O)Nc1ccc(C(F)(F)F)cc1Cl [WO2025049746, Example 265]
36 nM | 28 nM | CCc1c(N2CCN(C(=O)c3ncnc(C)c3O)CC2)c(=O)n2nc(-c3cc(F)c4c(c3)CCO4)nc2n1CC(=O)Nc1ccc(C(F)(F)F)cc1Cl [WO2025049746, Example 173]
5740 nM | 3350 nM | CCc1c(N2CCN(C(=O)C3(CO)CC3)CC2)c(=O)n2nc(C3=CCOCC3)nc2n1CC(=O)Nc1ccc(C(F)(F)F)cc1Cl [WO2025049746, Example 55]
86.3 nM | 56.2 nM | CCc1c(N2CCN(C(=O)c3ncccc3N=S3(=O)CCC3)CC2)c(=O)n2nc(C3=CCOCC3)nc2n1CC(=O)Nc1ccc(C(F)(F)F)cc1Cl [WO2025049746, Example 37]
23 nM | 24 nM | CCc1c(N2CCN(C(=O)c3ncnc(C)c3O)CC2)c(=O)n2nc(-c3ccc4nc(C)cn4c3)nc2n1CC(=O)Nc1ccc(C(F)(F)F)cc1Cl [WO2025049746, Example 255]
36 nM | 28 nM | CCc1c(N2CCN(C(=O)c3ncnc(C)c3O)CC2)c(=O)n2nc(-c3ccc4c(c3)COC4)nc2n1CC(=O)Nc1ccc(C(F)(F)F)c2c1CC2 [WO2025049746, Example 376]
26 nM | 29 nM | CCc1c(N2CCN(C(=O)c3ncnc(C)c3O)CC2)c(=O)n2nc(-c3ccc4nc(C)sc4c3)nc2n1CC(=O)Nc1ccc(C(F)(F)F)cc1Cl [WO2025049746, Example 285]
95 nM | 89 nM | CCc1c(N2CCN(C(=O)c3ncnc(C)c3O)CC2)c(=O)n2nc(-c3ccc4c(c3)CCC4OC(F)F)nc2n1CC(=O)Nc1ccc(C(F)(F)F)cc1Cl (centres undefined) [WO2025049746, Example 227]
